According to PubChem BioAssay AID342 (DTP/NCI, 2004):
“And” between values parts separate entries of the source, which are not always exact repeats. Equal entries are not always repeated.

Test system: Swiss mice, Sarcoma 180 sc, mean tumor weight T/C
Assay: NCI In Vivo Anticancer Drug Screen. Data for tumor model Sarcoma 180 (subcutaneous) in Swiss mice
Conditions: endpoint: mean tumor weight, higher = larger tumour
Procedure, shortened: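 Mice bearing transplanted tumors were treated with compound, and survival or tumor size was measured. Values are expressed as the treated-group measurement (T) divided by the vehicle-treated control measurement (C).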

[1] = dose: 50.0 mg/kg/injection, schedule: Q01DX007 (ip), vehicle: carboxymethylcellulose (CMC)

## NC1(C(=O)OCc2ccccc2)CCCC1
[1]
  T/C: 87 % of control
dose: 100.0 mg/kg/injection, schedule: Q01DX007 (ip), vehicle: carboxymethylcellulose (CMC)
  T/C: 76 % of control
dose: 200.0 mg/kg/injection, schedule: Q01DX007 (ip), vehicle: carboxymethylcellulose (CMC)
  T/C: 66 % of control
dose: 333.0 mg/kg/injection, schedule: Q01DX007 (ip), vehicle: carboxymethylcellulose (CMC)
  T/C: 64 % of control
dose: 400.0 mg/kg/injection, schedule: Q01DX007 (ip), vehicle: carboxymethylcellulose (CMC)
  T/C: 47 % of control
dose: 500.0 mg/kg/injection, schedule: Q01DX007 (ip), vehicle: carboxymethylcellulose (CMC)
  T/C: 36 % of control
dose: 750.0 mg/kg/injection, schedule: Q01DX007 (ip), vehicle: carboxymethylcellulose (CMC)
  T/C: 55 % of control
dose: 800.0 mg/kg/injection, schedule: Q01DX007 (ip), vehicle: carboxymethylcellulose (CMC)
  T/C: 25 % of control

## C[C@]12CC[C@H](O)C[C@H]1CC[C@@H]1[C@@H]2CC[C@]2(C)[C@@H](C3=CC(=O)OC3)[C@@H](O)C[C@]12O
dose: 3.0 mg/kg/injection, schedule: Q01DX007 (sc), vehicle: steriod suspending solution
  T/C: 78 % of control
dose: 10.0 mg/kg/injection, schedule: Q01DX007 (sc), vehicle: steriod suspending solution
  T/C: 64 % of control
dose: 25.0 mg/kg/injection, schedule: Q01DX007 (sc), vehicle: steriod suspending solution
  T/C: 50 % of control
dose: 50.0 mg/kg/injection, schedule: Q01DX007 (sc), vehicle: steriod suspending solution
  T/C: 70 % of control

## CSc1ncnc2c1ncn2C1OC(CO)C(O)C1O (centres undefined)
dose: 12.5 mg/kg/injection, schedule: Q01DX007 (ip), vehicle: saline
  T/C: 72 % of control
dose: 15.0 mg/kg/injection, schedule: Q01DX007 (ip), vehicle: saline
  T/C: 88 % of control
dose: 17.5 mg/kg/injection, schedule: Q01DX007 (ip), vehicle: saline
  T/C: 94 % of control
dose: 20.0 mg/kg/injection, schedule: Q01DX007 (ip), vehicle: saline
  T/C: 73 % of control

## COC1N(C2CC(O)C(CO)O2)C(=O)NC(=O)C1(F)Br (centres undefined)
dose: 22.0 mg/kg/injection, schedule: Q01DX007 (ip), vehicle: saline
  T/C: 85 % of control and 99 % of control
dose: 75.0 mg/kg/injection, schedule: Q01DX007 (ip), vehicle: saline
  T/C: 26 % of control and 43 % of control

## CN1Cc2c(ccc3c2OCO3)[C@@H]2[C@H](O)Cc3cc4c(cc3[C@@H]21)OCO4
dose: 150.0 mg/kg/injection, schedule: Q01DX007 (ip), vehicle: carboxymethylcellulose (CMC)
  T/C: 93 % of control

## CN(C)[C@@H]1C(=O)C(C(=O)NCNc2nc(=S)c3[nH]cnc3[nH]2)=C(O)[C@@]2(O)C(=O)C3=C(O)c4c(O)cccc4[C@@](C)(O)[C@H]3C[C@@H]12
dose: 25.0 mg/kg/injection, schedule: Q01DX007 (ip), vehicle: carboxymethylcellulose (CMC)
  T/C: 26 % of control
[1]
  T/C: 15 % of control

## c1ccn(-c2nc(-n3cccc3)nc(-n3cccc3)n2)c1
dose: 31.25 mg/kg/injection, schedule: Q#A X014 (ip), vehicle: carboxymethylcellulose (CMC)
  T/C: 47 % of control
dose: 62.5 mg/kg/injection, schedule: Q#A X014 (ip), vehicle: carboxymethylcellulose (CMC)
  T/C: 43 % of control
dose: 125.0 mg/kg/injection, schedule: Q#A X014 (ip), vehicle: carboxymethylcellulose (CMC)
  T/C: 46 % of control

## CC(C)CC(C)(C[N+](=O)[O-])C[N+](=O)[O-]
dose: 4.0 mg/kg/injection, schedule: Q01DX007 (ip), vehicle: saline
  T/C: 93 % of control

## O=C(O)CCCc1ccc(N(CCCl)CCCl)cc1
dose: 1.93 mg/kg/injection, schedule: Q01DX007 (ip), vehicle: carboxymethylcellulose (CMC)
  T/C: 49 % of control
dose: 2.62 mg/kg/injection, schedule: Q#A X014 (ip), vehicle: carboxymethylcellulose (CMC)
  T/C: 99 % of control
dose: 3.01 mg/kg/injection, schedule: Q01DX007 (ip), vehicle: carboxymethylcellulose (CMC)
  T/C: 88 % of control
dose: 3.85 mg/kg/injection, schedule: Q01DX007 (ip), vehicle: carboxymethylcellulose (CMC)
  T/C: 41 % of control
dose: 5.25 mg/kg/injection, schedule: Q#A X014 (ip), vehicle: carboxymethylcellulose (CMC)
  T/C: 69 % of control
dose: 5.6 mg/kg/injection, schedule: Q01DX007 (ip), vehicle: carboxymethylcellulose (CMC)
  T/C: 71 % of control
dose: 6.03 mg/kg/injection, schedule: Q01DX007 (ip), vehicle: carboxymethylcellulose (CMC)
  T/C: 86 % of control
dose: 7.0 mg/kg/injection, schedule: Q01DX007 (ip), vehicle: carboxymethylcellulose (CMC)
  T/C: 52 % of control and 57 % of control
dose: 7.7 mg/kg/injection, schedule: Q01DX007 (ip), vehicle: carboxymethylcellulose (CMC)
  T/C: 37 % of control
dose: 9.33 mg/kg/injection, schedule: Q01DX007 (ip), vehicle: carboxymethylcellulose (CMC)
  T/C: 63 % of control
dose: 10.5 mg/kg/injection, schedule: Q01DX007 (ip), vehicle: carboxymethylcellulose (CMC)
  T/C: 60 % of control
dose: 10.5 mg/kg/injection, schedule: Q#A X014 (ip), vehicle: carboxymethylcellulose (CMC)
  T/C: 18 % of control
dose: 12.05 mg/kg/injection, schedule: Q01DX007 (ip), vehicle: carboxymethylcellulose (CMC)
  T/C: 58 % of control
dose: 14.0 mg/kg/injection, schedule: Q01DX007 (ip), vehicle: carboxymethylcellulose (CMC)
  T/C: 23 % of control and 48 % of control
